Data taken from patent US9126938B2, “Phosphatidylcholine transfer protein inhibitors” (The Brigham and Women's Hospital, Inc., priority 2009, dated 2015).

Columns and labels:
PC-TP = biological target: T1, PC-TP (Homo sapiens, UniProt Q9UKL6); experiment: PC-TP inhibition assay (Wagle et al. method); assay type: biochemical; settings: for Activity (PC-TP), result in words: compound fluorescence in the fluorescence-based assay; for IC50: Table 1, concentration value
T1 sequence (Q9UKL6 1-214): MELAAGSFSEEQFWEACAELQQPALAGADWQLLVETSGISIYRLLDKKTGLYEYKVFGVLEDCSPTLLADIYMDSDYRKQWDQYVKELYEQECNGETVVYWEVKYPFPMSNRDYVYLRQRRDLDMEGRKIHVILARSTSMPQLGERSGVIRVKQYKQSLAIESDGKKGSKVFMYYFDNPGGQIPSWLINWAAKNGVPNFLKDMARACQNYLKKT
Experimental: (§1) The compounds in Table 1 and 2 were assayed for their ability to inhibit PC-TP and StarD10, respectively, using a known assay method (see Wagle et al., 2008. Anal. Biochem. 383:85-92, which is incorporated herein by reference in its entirety). Further, certain compounds were also tested for their ability to inhibit StarD7 (see Table 2).

StarD10 = biological target: T2, StarD10 (Homo sapiens, UniProt Q9Y365); experiment: StarD10 inhibition assay; assay type: biochemical
T2 sequence (Q9Y365 1-291): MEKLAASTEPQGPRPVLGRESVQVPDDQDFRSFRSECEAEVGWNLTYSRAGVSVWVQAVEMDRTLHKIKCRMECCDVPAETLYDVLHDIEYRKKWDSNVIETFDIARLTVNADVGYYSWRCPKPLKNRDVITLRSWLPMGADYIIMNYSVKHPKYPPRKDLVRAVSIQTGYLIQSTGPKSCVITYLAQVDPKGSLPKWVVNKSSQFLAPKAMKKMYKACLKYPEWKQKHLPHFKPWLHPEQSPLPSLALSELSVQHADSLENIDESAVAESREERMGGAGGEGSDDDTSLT
Experimental: as §1

[1] = system: insulin signaling pathway in cultured primary human hepatocytes; experiment: Activation of insulin signaling pathway in primary human hepatocytes (immunoblot); assay type: cell-based; settings: serum starved hepatocytes, 60 minute exposure, doses of 0.05 and 0.10 μM, no insulin
Experimental: Cultured primary human hepatocytes (commercially obtained) were serum starved overnight followed by 60 minute exposure to A) Compound 4 or B) Compound 16 at the indicated concentrations. Inhibitors were dissolved in DMSO. Negative controls included Control (no additions) and DMSO alone. The positive control included DMSO plus insulin (50 nM) for 30 minutes. Cells were harvested and lysates were subjected to immunoblot analyses using antibodies, as indicated.

StarD7 = biological target: T3, StarD7 (Homo sapiens, UniProt Q9NQZ5); experiment: StarD7 inhibition assay; assay type: biochemical
T3 sequence (Q9NQZ5 78-370): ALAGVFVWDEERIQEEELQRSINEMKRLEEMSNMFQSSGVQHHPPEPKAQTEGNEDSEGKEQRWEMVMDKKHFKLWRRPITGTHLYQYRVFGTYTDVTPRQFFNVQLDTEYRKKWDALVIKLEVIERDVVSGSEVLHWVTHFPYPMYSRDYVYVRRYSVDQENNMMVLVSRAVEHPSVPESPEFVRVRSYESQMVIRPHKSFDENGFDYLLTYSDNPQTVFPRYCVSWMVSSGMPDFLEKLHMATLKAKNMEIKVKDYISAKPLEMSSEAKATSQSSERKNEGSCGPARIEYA
Experimental: as §1

SMILES	IC50 (PC-TP) [µM]	further results
CCN(CC)CCN(C(=O)Nc1ccc(S(=O)(=O)Nc2nc(C)cc(C)n2)cc1)C(=O)c1ccc(Cl)cc1Cl [Compound 29, 2,4-dichloro-N-(2-(diethylamino)ethyl)-N-((4-(N-(4,6-dimethylpyrimidin-2-yl)sulfamoyl)phenyl)carbamoyl)benzamide]	–	Activity (PC-TP), result in words (PC-TP): High fluoroescense
Cc1cc(C)nc(NS(=O)(=O)c2ccc(NC(=O)NC(=O)c3cccc(Cl)c3Cl)cc2)n1 [Compound 9, 2,3-dichloro-N-(4-(N-(4,6-dimethylpyrimidin-2-yl)sulfamoyl)phenylcarbamoyl) benzamide]	3.2	IC50 (StarD10): 39 µM
O=C(Nc1cc(C(F)(F)F)cc(C(F)(F)F)c1)C(Sc1cccc[n+]1[O-])c1ccccc1 (stereo not drawn) [Compound 20, 2-(2-(3,5-bis(trifluoromethyl)phenylamino)-2-oxo-1-phenylethylthio)pyridine 1-oxide]	13	–
O=C(Nc1cc(Cl)cc(Cl)c1)C(Sc1cccc[n+]1[O-])c1ccccc1Cl (stereo not drawn) [Compound 21, 2-(1-(2-chlorophenyl)-2-(3,5-dichlorophenylamino)-2-oxoethylthio)pyridine 1-oxide]	15	–
O=C(Nc1ccc(Cl)cc1C(F)(F)F)C(Sc1cccc[n+]1[O-])c1ccccc1 (stereo not drawn) [Compound 28, 2-(2-(4-chloro-2-(trifluoromethyl)phenylamino)-2-oxo-1-phenylethylthio)pyridine 1-oxide]	~50	–
O=C(Nc1ccccc1Cl)C(Sc1cccc[n+]1[O-])c1ccccc1 (stereo not drawn) [Compound 33, 2-(2-(2-chlorophenylamino)-2-oxo-1-phenylethylthio)pyridine 1-oxide]	15	IC50 (StarD10): 23 µM
Cc1cc(C)nc(NS(=O)(=O)c2ccc(NC(=O)NC(=O)c3ccc(Cl)cc3Cl)cc2)c1 [Compound 7, 2,4-dichloro-N-(4-(N-(4,6-dimethylpyridin-2-yl)sulfamoyl)phenylcarbamoyl) benzamide]	5	–
O=C(Nc1cc(Cl)cc(Cl)c1)C(Sc1cccc[n+]1[O-])c1ccccc1 (stereo not drawn) [Compound 16, 2-(2-(3,5-dichlorophenylamino)-2-oxo-1-phenylethylthio)pyridine 1-oxide]	3.6	Activation of insulin signaling [1]: activated insulin signaling; IC50 (StarD10): 20 µM; IC50 (StarD7): 66 µM
COc1ccc(C(Sc2cccc[n+]2[O-])C(=O)Nc2cc(Cl)cc(Cl)c2)cc1 (stereo not drawn) [Compound 25, 2-(2-(3,5-dichlorophenylamino)-1-(4-methoxyphenyl)-2-oxoethylthio)pyridine 1-oxide]	–	inhibition at 50 µM (PC-TP): 30%
Cc1cc(C)nc(NS(=O)(=O)c2ccc(NC(=S)NC(=O)c3ccccc3)cc2)n1 [Compound 3, N-(4-(N-(4,6-dimethylpyrimidin-2-yl)sulfamoyl)phenylcarbamothioyl) benzamide]	–	inhibition at 100 µM (PC-TP): 45%
O=C(Nc1cc(Cl)cc(Cl)c1)C(Sc1cccc[n+]1[O-])c1ccc2ccccc2c1 (stereo not drawn) [Compound 26, 2-(2-(3,5-dichlorophenylamino)-1-(naphthalen-2-yl)-2-oxoethylthio)pyridine 1-oxide]	–	inhibition at 50 µM (PC-TP): 20%
O=C(Nc1cccc(C(F)(F)F)c1)C(Sc1cccc[n+]1[O-])c1ccccc1 (stereo not drawn) [Compound 19, 2-(2-oxo-1-phenyl-2-(3-(trifluoromethyl)phenylamino)ethylthio)pyridine 1-oxide]	11	–
Cc1cc(C)nc(NS(=O)(=O)c2ccc(N(C)C(=O)NC(=O)c3ccc(Cl)cc3Cl)cc2)n1 [Compound 11, 2,4-dichloro-N-((4-(N-(4,6-dimethylpyrimidin-2-yl)sulfamoyl)phenyl)(methyl)carbamoyl)benzamide]	> 50	–
O=C(Nc1cc(C(F)(F)F)ccc1Cl)C(Sc1cccc[n+]1[O-])c1ccccc1 (stereo not drawn) [Compound 31, 2-(2-(2-chloro-5-(trifluoromethyl)phenylamino)-2-oxo-1-phenylethylthio)pyridine 1-oxide]	> 100	–
COc1ccc(NC(=O)C(Sc2cccc[n+]2[O-])c2ccccc2)cc1Cl (stereo not drawn) [Compound 17, 2-(2-(3-chloro-4-methoxyphenylamino)-2-oxo-1-phenylethylthio)pyridine 1-oxide]	20	–
COc1ccccc1NC(=O)C(Sc1cccc[n+]1[O-])c1ccccc1 (stereo not drawn) [Compound 34, 2-(2-(2-methoxyphenylamino)-2-oxo-1-phenylethylthio)pyridine 1-oxide]	4	IC50 (StarD10): 15 µM
COc1ccccc1C(Sc1cccc[n+]1[O-])C(=O)Nc1cc(Cl)cc(Cl)c1 (stereo not drawn) [Compound 22, 2-(2-(3,5-dichlorophenylamino)-1-(2-methoxyphenyl)-2-oxoethylthio)pyridine 1-oxide]	4.1	–
Cc1cc(NS(=O)(=O)c2ccc(NC(=O)NC(=O)c3ccc(Cl)cc3Cl)cc2)nc(C)n1 [Compound 13, 2,4-dichloro-N-(4-(N-(2,6-dimethylpyrimidin-4-yl)sulfamoyl)phenylcarbamoyl) benzamide]	2.3	IC50 (StarD10): 20 µM
Cc1cc(C)nc(NS(=O)(=O)c2ccc(NC(=O)N(C)C(=O)c3ccc(Cl)cc3Cl)cc2)n1 [Compound 15, 2,4-dichloro-N-(4-(N-(4,6-dimethylpyrimidin-2-yl)sulfamoyl)phenylcarbamoyl)-N-methylbenzamide]	8	IC50 (StarD10): 17 µM
CCN(CC)CCN(c1nc(C)cc(C)n1)S(=O)(=O)c1ccc(NC(=O)NC(=O)c2ccc(Cl)cc2Cl)cc1 [Compound 30, 2,4-dichloro-N-((4-(N-(2-(diethylamino)ethyl)-N-(4,6-dimethylpyrimidin-2-yl)sulfamoyl)phenyl)carbamoyl)benzamide]	–	Activity (PC-TP), result in words (PC-TP): High fluorescense
CCOc1ccccc1NC(=O)C(Sc1cccc[n+]1[O-])c1ccccc1 (stereo not drawn) [Compound 32, 2-(2-(2-ethoxyphenylamino)-2-oxo-1-phenylethylthio)pyridine 1-oxide]	> 100	–
Cc1cc(C)nc(NS(=O)(=O)c2ccc(NC(=O)NC(=O)c3ccccc3Cl)cc2)n1 [Compound 5, 2-chloro-N-(4-(N-(4,6-dimethylpyrimidin-2-yl)sulfamoyl)phenylcarbamoyl) benzamide]	30	–
O=C(Nc1cc(Cl)cc(Cl)c1)C(Sc1cccc[n+]1[O-])c1cccc2ccccc12 (stereo not drawn) [Compound 23, 2-(2-(3,5-dichlorophenylamino)-1-(naphthalen-1-yl)-2-oxoethylthio)pyridine 1-oxide]	12	–
Cc1cc(C)nc(N(C)S(=O)(=O)c2ccc(NC(=O)NC(=O)c3ccc(Cl)cc3Cl)cc2)n1 [Compound 12, 2,4-dichloro-N-(4-(N-(4,6-dimethylpyrimidin-2-yl)-N-methylsulfamoyl)phenylcarbamoyl) benzamide]	2.3	IC50 (StarD10): 11 µM
Cc1cc(C)nc(NS(=O)(=O)c2ccc(NC(=S)NC(=O)c3ccc(F)cc3)cc2)n1 [Compound 2, N-(4-(N-(4,6-dimethylpyrimidin-2-yl)sulfamoyl)phenylcarbamothioyl)-4-fluorobenzamide]	–	inhibition at 100 µM (PC-TP): 55%
Cc1cc(C)cc(NS(=O)(=O)c2ccc(NC(=O)NC(=O)c3ccc(Cl)cc3Cl)cc2)c1 [Compound 14]	20	–
Cc1cc(C)nc(NS(=O)(=O)c2ccc(NC(=O)NC(=O)c3ccc(Cl)cc3)cc2)n1 [Compound 6, 4-chloro-N-(4-(N-(4,6-dimethylpyrimidin-2-yl)sulfamoyl)phenylcarbamoyl) benzamide]	26	–
Cc1cc(C)nc(NS(=O)(=O)c2ccc(NC(=O)NC(=O)c3ccc(Cl)c(Cl)c3)cc2)n1 [Compound 10, 3,4-dichloro-N-(4-(N-(4,6-dimethylpyrimidin-2-yl)sulfamoyl)phenyl-carbamoyl)benzamide]	30	–
Cc1cc(C)nc(NS(=O)(=O)c2ccc(NC(=S)NC(=O)c3ccc(Cl)cc3Cl)cc2)n1 [Compound 1, 2,4-dichloro-N-(4-(N-(4,6-dimethyl-pyrimidin-2-yl)sulfamoyl)phenylcarbamothioyl) benzamide]	3.2	–
O=C(Nc1cc(Cl)cc(Cl)c1)C(Sc1cc2ccccc2c[n+]1[O-])c1ccccc1 (stereo not drawn) [Compound 24, 3-(2-(3,5-dichlorophenylamino)-2-oxo-1-phenylethylthio)isoquinoline 2-oxide]	–	inhibition at 30 µM (PC-TP; at 30 μM): 25%
